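How tested: cells in 96-well plates exposed to compound for 48 hours at five concentrations. GI50 is the concentration that inhibits growth by half. Definition used: TGI = concentration required for complete inhibition of growth.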
Key:
Assay in all cases: inhibition of tumour cell growth, NCI panel, 48 h
SF-539 CNS = test system: SF-539 CNS
SW-620 colon = test system: SW-620 colon
MDA-MB-435 = test system: MDA-MB-435
OVCAR-3 ovarian = test system: OVCAR-3 ovarian
UO-31 renal = test system: UO-31 renal
SF-268 CNS = test system: SF-268 CNS
BT-549 breast = test system: BT-549 breast
UACC-62 melanoma = test system: UACC-62 melanoma
MDA-MB-231 breast = test system: MDA-MB-231 breast
NCI/ADR-RES ovarian = test system: NCI/ADR-RES ovarian
TK-10 renal = test system: TK-10 renal
HOP-92 NSCLC = test system: HOP-92 NSCLC
HL-60(TB) leukemia = test system: HL-60(TB) leukemia
OVCAR-8 ovarian = test system: OVCAR-8 ovarian
COLO 205 colon = test system: COLO 205 colon
786-0 renal = test system: 786-0 renal
LOX IMVI melanoma = test system: LOX IMVI melanoma
HOP-62 NSCLC = test system: HOP-62 NSCLC
OVCAR-5 ovarian = test system: OVCAR-5 ovarian
NCI-H226 lung = test system: NCI-H226 lung
HT29 colon = test system: HT29 colon
HS 578T breast = test system: HS 578T breast
M14 melanoma = test system: M14 melanoma
KM12 colon = test system: KM12 colon
MOLT-4 leukemia = test system: MOLT-4 leukemia
UACC-257 melanoma = test system: UACC-257 melanoma
RPMI-8226 leukemia = test system: RPMI-8226 leukemia
T-47D breast = test system: T-47D breast
SK-OV-3 ovarian = test system: SK-OV-3 ovarian
HCT-116 colon = test system: HCT-116 colon
ACHN renal = test system: ACHN renal
IGROV1 ovarian = test system: IGROV1 ovarian
MCF7 breast = test system: MCF7 breast
HCC-2998 colon = test system: HCC-2998 colon
PC-3 prostate = test system: PC-3 prostate
K-562 leukemia = test system: K-562 leukemia
CAKI-1 renal = test system: CAKI-1 renal
SR leukemia = test system: SR leukemia
NCI-H23 lung = test system: NCI-H23 lung
SK-MEL-5 melanoma = test system: SK-MEL-5 melanoma
RXF 393 renal = test system: RXF 393 renal
NCI-H460 lung = test system: NCI-H460 lung
SN12C renal = test system: SN12C renal
MALME-3M melanoma = test system: MALME-3M melanoma
SK-MEL-28 melanoma = test system: SK-MEL-28 melanoma
EKVX NSCLC = test system: EKVX NSCLC
HCT-15 colon = test system: HCT-15 colon
SNB-75 CNS = test system: SNB-75 CNS
SF-295 CNS = test system: SF-295 CNS
CCRF-CEM leukemia = test system: CCRF-CEM leukemia
NCI-H522 lung = test system: NCI-H522 lung
SK-MEL-2 melanoma = test system: SK-MEL-2 melanoma
OVCAR-4 ovarian = test system: OVCAR-4 ovarian
DU-145 prostate = test system: DU-145 prostate
U251 CNS = test system: U251 CNS
A549 NSCLC = test system: A549 NSCLC
A498 renal = test system: A498 renal
SNB-19 CNS = test system: SNB-19 CNS

Q: What does the source list for `CCOc1nc(-c2ccccc2)cc2c(O)c(C(=O)N/N=C/c3ccc(O)cc3O)[nH]c(=O)c12`?
A: GI50 (SF-539 CNS): 0.904 µM; TGI (SF-539 CNS): 6.06 µM; GI50 (SW-620 colon): 1.88 µM; TGI (SW-620 colon): > 100 µM; GI50 (MDA-MB-435): 4.05 µM; TGI (MDA-MB-435): > 100 µM; GI50 (OVCAR-3 ovarian): 0.364 µM; TGI (OVCAR-3 ovarian): 10.6 µM; GI50 (UO-31 renal): 1.52 µM; TGI (UO-31 renal): 16 µM; GI50 (SF-268 CNS): 0.766 µM; TGI (SF-268 CNS): 16.4 µM; GI50 (BT-549 breast): 1.65 µM; TGI (BT-549 breast): > 26.3 µM; GI50 (UACC-62 melanoma): 1.17 µM; GI50 (MDA-MB-231 breast): 4.12 µM; TGI (MDA-MB-231 breast): > 93 µM; GI50 (NCI/ADR-RES ovarian): 1.77 µM; TGI (NCI/ADR-RES ovarian): > 31.3 µM; GI50 (TK-10 renal): 6.47 µM; TGI (TK-10 renal): > 100 µM; GI50 (HOP-92 NSCLC): 4.42 µM; TGI (HOP-92 NSCLC): > 100 µM; GI50 (HL-60(TB) leukemia): 1.44 µM; TGI (HL-60(TB) leukemia): 13.4 µM; GI50 (OVCAR-8 ovarian): 0.965 µM; TGI (OVCAR-8 ovarian): > 37.1 µM; GI50 (COLO 205 colon): 0.751 µM; TGI (COLO 205 colon): 12.6 µM; GI50 (786-0 renal): 2.31 µM; TGI (786-0 renal): 8.34 µM; GI50 (LOX IMVI melanoma): 0.686 µM; TGI (LOX IMVI melanoma): 9.11 µM; GI50 (HOP-62 NSCLC): 1.65 µM; TGI (HOP-62 NSCLC): > 52.1 µM; GI50 (OVCAR-5 ovarian): 7.06 µM; TGI (OVCAR-5 ovarian): > 100 µM; GI50 (NCI-H226 lung): 1.49 µM; TGI (NCI-H226 lung): 8.15 µM; GI50 (HT29 colon): 5.41 µM; TGI (HT29 colon): > 100 µM; GI50 (HS 578T breast): 14 µM; TGI (HS 578T breast): > 100 µM; GI50 (M14 melanoma): 1.45 µM; TGI (M14 melanoma): 7.16 µM; GI50 (KM12 colon): 5.73 µM; TGI (KM12 colon): > 100 µM; GI50 (MOLT-4 leukemia): 0.22 µM; TGI (MOLT-4 leukemia): > 94.4 µM; GI50 (UACC-257 melanoma): 2.93 µM; TGI (UACC-257 melanoma): 17.3 µM; GI50 (RPMI-8226 leukemia): 5.62 µM; TGI (RPMI-8226 leukemia): 43 µM; GI50 (T-47D breast): 1.64 µM; TGI (T-47D breast): 50.1 µM; GI50 (SK-OV-3 ovarian): 1.26 µM; TGI (SK-OV-3 ovarian): > 24.7 µM; GI50 (HCT-116 colon): 0.66 µM; TGI (HCT-116 colon): 17.5 µM; GI50 (ACHN renal): 1.79 µM; TGI (ACHN renal): > 35.5 µM; GI50 (IGROV1 ovarian): 4.08 µM; TGI (IGROV1 ovarian): 59.5 µM; GI50 (MCF7 breast): 2.17 µM; TGI (MCF7 breast): > 32 µM; GI50 (HCC-2998 colon): 1.95 µM; TGI (HCC-2998 colon): > 82.3 µM; GI50 (PC-3 prostate): 5.55 µM; TGI (PC-3 prostate): > 100 µM; GI50 (K-562 leukemia): 1.62 µM; TGI (K-562 leukemia): > 100 µM; GI50 (CAKI-1 renal): 1.91 µM; TGI (CAKI-1 renal): > 29.5 µM; TGI (SR leukemia): > 27.5 µM; GI50 (NCI-H23 lung): 4.66 µM; TGI (NCI-H23 lung): > 82.8 µM; GI50 (SK-MEL-5 melanoma): 1.48 µM; TGI (SK-MEL-5 melanoma): > 57.6 µM; GI50 (RXF 393 renal): 1.53 µM; TGI (RXF 393 renal): 11.9 µM; GI50 (NCI-H460 lung): 3.6 µM; TGI (NCI-H460 lung): 27.6 µM; GI50 (SN12C renal): 2.43 µM; TGI (SN12C renal): > 39 µM; GI50 (MALME-3M melanoma): 2.86 µM; TGI (MALME-3M melanoma): > 40.5 µM; GI50 (SK-MEL-28 melanoma): 2.32 µM; TGI (SK-MEL-28 melanoma): > 100 µM; GI50 (EKVX NSCLC): 2.5 µM; TGI (EKVX NSCLC): > 100 µM; GI50 (HCT-15 colon): 1.5 µM; TGI (HCT-15 colon): > 100 µM; GI50 (SNB-75 CNS): 3.16 µM; TGI (SNB-75 CNS): > 42 µM; GI50 (SF-295 CNS): 4.88 µM; TGI (SF-295 CNS): > 100 µM; GI50 (CCRF-CEM leukemia): 0.357 µM; TGI (CCRF-CEM leukemia): > 23.2 µM; GI50 (NCI-H522 lung): 1.29 µM; TGI (NCI-H522 lung): 23.5 µM; GI50 (SK-MEL-2 melanoma): 5.1 µM; TGI (SK-MEL-2 melanoma): 88.8 µM; GI50 (OVCAR-4 ovarian): 0.407 µM; TGI (OVCAR-4 ovarian): > 40.8 µM; GI50 (DU-145 prostate): 2.61 µM; TGI (DU-145 prostate): 25.5 µM; GI50 (U251 CNS): 0.789 µM; TGI (U251 CNS): > 100 µM; GI50 (A549 NSCLC): 6.5 µM; TGI (A549 NSCLC): > 100 µM; GI50 (A498 renal): 3.64 µM; TGI (A498 renal): 28.5 µM; GI50 (SNB-19 CNS): 1.42 µM; TGI (SNB-19 CNS): > 46.8 µM

From PubChem BioAssay (NCI)
